Measurements reported in US20230124720A1, “APPLICATION OF ACRIDINEDIONE COMPOUND IN PREPARATION OF ANTI-DIABETIC DRUGS” (THE FOURTH MILITARY MEDICAL UNIVERSITY, priority 2020, published 2023).

Key:
STZ-induced T2DM rats = assay: Postprandial blood glucose in STZ-induced T2DM rats; format: in vivo, rat; details: for reduction in blood glucose compared to the TD group: end of administration
Protocol: 150 male SD rats, housed in cages in a clean constant temperature (23±2° C.) and humidity (55±10%) animal house, were manually adjusted on a daily 12 h/12 h diurnal light cycle with free access to water. After 3 days of adaptive feeding, 150 rats were randomly divided into normal and model groups. The normal (Con, n=15) group of rats remained on raw chow and the model group (n=135) of rats were given high fat high sugar chow. All rats were fed twice daily and the amount of feed was adjusted as needed to ensure adequate feed. After 8 weeks of group feeding, the model group rats were given an intraperitoneal injection of 25 mg/kg STZ solution with a 12 h fast prior to injection. After injection, feeding was continued as in the original method, blood was taken from the tail vein at 72 h for blood glucose measurement, and rats with fasting blood glucose levels ≥11.1 mmol/L on different days were screened for successful artificial induction of T2DM and administered in groups for the next experiment. 135 rats with successful modeling were randomly divided into 9 groups: […] (2) 0.01 mg/kg ADD-16 administration group (ADD I, n=15): daily administration of 0.01 mg/kg ADD-16 solution by gavage; (3) 0.1 mg/kg ADD-16 administration group (ADD II, n=15): daily administration of a 0.1 mg/kg ADD-16 solution by gavage; (4) 1 mg/kg ADD-16 administration group (ADD III, n=15): daily administration of a 1 mg/kg ADD-16 solution by gavage; (5) 3 mg/kg ADD-16 administration group (ADD IV, n=15): daily administration of a 3 mg/kg ADD-16 solution by gavage; (6) 10 mg/kg ADD-16 administration group (ADD V, n=15): daily administration of a 10 mg/kg ADD-16 solution by gavage; (7) 50 mg/kg ADD-16 administration group (ADD VI, n=15): daily administration of a 50 mg/kg ADD-16 solution by gavage; […] (9) Sitagliptin control group (ST, n=15): daily administration of a 6 mg/kg sitagliptin solution by gavage. […] Relevant indicators of lipid metabolism were measured after the end of the study.

MIN6 cells = assay: Insulin secretion in PA-induced insulin-resistant MIN6 cells; format: cell-based, mouse
Protocol: MIN6 cells were seeded in 24-well plates and cultured as described in step 2.1 to a cell confluency of more than 80% and administrated in the following groups, with 12 replicates per group: (1) normal control group (Con): cultured with blank 1640 medium; (2) insulin resistance model panel (IR): treated with 0.125 mmol/L PA for 24 h to induce establishment of an insulin resistance model; (3) ADD-16 administration group (ADD): 10 μmol/L ADD-16 intervention was administered for 24 h after successful establishment of the insulin resistance model; (4) TAK875 control group (TAK875): 10 μmol/L TAK875 was administered as a positive control drug intervention for 24 h after successful establishment of the insulin resistance model; (5) metformin control group (MT): 10 mmol/L metformin was administered as a positive control drug intervention for 24 h after successful establishment of the insulin resistance model; (6) sitagliptin control group (ST): 10 μmol/L sitagliptin was administered as a positive control drug intervention for 24 h after successful establishment of the insulin resistance model. After the group administration, the medium was aspirated and washed 2 times with a KRB buffer without sugar, followed by the addition of the KRB buffer without sugar. […] After incubation at 37° C. for 1 h, all the medium in the wells was aspirated and centrifuged at 2000 rmp/min for 20 min, and the supernatant was collected and stored at −20° C. The insulin content was measured for each group.

[1] = Tissue distribution kinetics in SD rats (LC-MS/MS); format: in vivo, rat; details: gavage 10 mg/kg
Protocol: 40 healthy male SD rats, weighing 200-220 g, were housed adaptively for three days and fasted for 12 h prior to the experiment. All rats were randomly divided into 5 groups, 8 for each group. Each group of rats was gavaged with the ADD-16 solution (10 mg/kg), anesthetized at 10, 30, 60, 240, 480 min after administration, and sacrificed by exsanguination of the abdominal aorta, respectively. Each group of rats was sacrificed by dissection to collect tissues such as heart, liver, spleen, lung, kidney, brain, and islets. After washing the tissue samples with physiological saline to clean surface blood, the tissue samples were blotted with filter paper to dry surface moisture, weighed, and stored at −80° C. The assay was performed by natural thawing at room temperature and the concentration of ADD-16 in each tissue was determined using the LC-MS/MS method.

[2] = Plasma kinetics after single oral administration in SD rats (LC-MS/MS); format: in vivo, rat; details: single oral 10 mg/kg
Protocol: Eight healthy male SD rats, weighing 200-220 g, were housed in a clean animal room maintained at constant temperature (23±2° C.) and humidity (55±10%) with a 12 h/12 h artificial light cycle with free access to food and water and conditioned for 3 days prior to the experiment. All rats were fasted from water for 12 h prior to the experiment, and after oral administration of an ADD-16 solution (10 mg/kg) to each rat, and blood was taken at the orbital site at 5, 10, 15, 30, 45, 60, 120, 240, 360, 720, 1440 min. The blood was immediately fed into heparinized centrifuge tubes at 4° C., 3000 rpm/min, centrifuged for 10 min, and the supernatant plasma was carefully aspirated and stored at −80° C. Assays were performed by natural thawing at room temperature and plasma sample pre-treatment procedures were followed to determine plasma concentrations in rats following a single dose using the established LC-MS/MS method.

CC1(C)CC(=O)C2=C(C1)NC1=C(C(=O)CC(C)(C)C1)C2c1ccc(OCc2ccc(C(=O)O)cc2)c(Br)c1 [ADD-16]
reduction in blood glucose compared to the TD group (STZ-induced T2DM rats; ADD IV group, 3 mg/kg daily by gavage): 55.0%
reduction in blood glucose compared to the TD group (STZ-induced T2DM rats; ADD V group, 10 mg/kg daily by gavage): 56.8%
reduction in blood glucose compared to the TD group (STZ-induced T2DM rats; ADD VI group, 50 mg/kg daily by gavage): 56.2%
hypoglycemic effect (in words) (STZ-induced T2DM rats; T2DM rats, 3, 10, 50 mg/kg): significant hypoglycemic effect
insulin secretion level in insulin-resistant MIN6 cells (in words) (MIN6 cells; PA-induced IR model, 10 μmol/L, 24 h, 2.8 and 16.7 mmol/L glucose, P<0.001): even higher than in Con group
insulinotropic effect compared with TAK875 in insulin-resistant MIN6 cells (in words) (MIN6 cells; same administration concentrations (10 μmol/L)): slightly better than TAK875
islet targeting (in words) [1]: well-defined islet targeting
tissue Cmax order ([1]; AUC 0-8 order the same): liver>islets>lung>kidney>heart>spleen>brain
blood-brain barrier penetration (in words) ([1]; lowest concentration in brain tissue): does not readily penetrate the blood-brain barrier
CL/F ([2]; male, SD, rat, plasma, po, 10 mg/kg, plasma, n = 8, read-out: CLz/F (clearance) (converted)): ~0.15 mL/min/kg
Cmax ([2]; male, SD, rat, plasma, po, 10 mg/kg, plasma, n = 8, read-out: Cmax (plasma concentration maximum)): ~395 ng/mL
Vd/F ([2]; male, SD, rat, plasma, po, 10 mg/kg, plasma, n = 8, read-out: Vz/F (apparent volume of distribution)): ~0.36 L/kg
half-life ([2]; male, SD, rat, plasma, po, 10 mg/kg, plasma, n = 8, read-out: t1/2z (half-life) (converted)): ~30.2 h
AUC(0-inf) ([2]; male, SD, rat, plasma, n = 8): 2420 ± 527 ng·h/mL
AUC(0-t) ([2]; male, SD, rat, plasma, n = 8): 1130 ± 35.7 ng·h/mL
Tmax ([2]; male, SD, rat, plasma, n = 8): 0.5 h
MRT last ([2]; male, SD, rat, plasma, n = 8, read-out: MRT(0-t)): 8.8 ± 0.4 h
MRT inf ([2]; male, SD, rat, plasma, n = 8, read-out: MRT(0-∞)): 37.5 ± 9.2 h
time of maximum blood concentration [2]: 30 min
Cz ([2]; plasma, n = 8): 29.8 ± 10.3 ng/mL
VRT(0-t) ([2]; plasma, n = 8): 55.2 ± 3.0 h^2
VRT(0-∞) ([2]; plasma, n = 8): 1908.2 ± 835.5 h^2
